{
  "source": "patent US7897397B2",
  "about": "“Cell fusion promoter and utilization of the same” (Kowa Company, Ltd., priority 2004, dated 2011)",
  "test_system": "myocardial cell/bone marrow cell co-culture system",
  "test": "Cell fusion in myocardial cell/bone marrow cell co-culture, fused cells (MF20- and EGFP-positive) counted by flow cytometry",
  "type": "cell-based, rat",
  "from_the_text": "From a 1- to 2-day-old Wistar-Kyoto rat, the heart was removed, and myocardial cells were isolated therefrom and cultured. Bone marrow mononuclear cells separated from the bone marrow of an EGFP (enhanced green fluorescent protein) transgenic rat were introduced into the myocardial cells, followed by co-culture thereof.\nFlow cytometry was used to quantitatively determine the number of these fused cells. The cells were fixed with paraformaldehyde in the same manner as above, then fluorescence-immunostained in a suspended state with primary antibody MF20, a biotin-conjugated anti-mouse antibody as secondary antibody and a streptavidin/PerCP-cye5.5 conjugate as tertiary antibody, and analyzed by flow cytometry. 50,000 cells were analyzed for each analysis. […] The cells in the gate R4 in FIG. 2 (D) were confirmed to be fused cells positive to both MF20 and EGFP.\nThen, according to a similar manner to that described above, ATP was added at a concentration of 0 mM (control), 1 mM, 2 mM and 3 mM respectively to the myocardial cell/bone marrow cell co-culture system, and the number of fused cells was examined. Each group at the predetermined concentration of ATP was stained in the same manner as in FIG. 2 and analyzed by flow cytometry. The results are shown in the graphs in FIGS. 3A-D.\nThe result is shown in the graph in FIG. 4. In FIG. 4, the ratio (%) of the number of fused cells to the total number of cells is shown on the ordinate, and the concentration of ATP (0 mM, 1 mM, 2 mM and 3 mM) is shown on the abscissa. The asterisk (*) in FIG. 4 indicates significance (p<0.05) relative to the control group. As a result, it was confirmed that only about 0.1% fused cells were formed in the control group in the absence of ATP, while about 0.5% fused cells that are about 5-times as much as in the control group were formed in the group to which 1 or 2 mM ATP had been added.\nAccording to the method of Minamino et al. (Minamino T., Gaussin V., DeMayo F. J., et al., Circ. Res. 2001; 88:587-592), the heart was removed from a 1- to 2-day-old Wistar-Kyoto rat and myocardial cells were isolated. […]\nThen, the number of the fused cells was quantitatively determined by flow cytometry. After 1 week of co-culture, the cells were treated with trypsin and fixed with paraformaldehyde in the same manner as above, fluorescence-immunostained in a suspended state with primary antibody MF20 (labeled with PerCP-cye5.5 and captured as being positive to FL-3), biotin-conjugated anti-mouse Ig's antibody (BD Pharmingen) as secondary antibody, and streptavidin/PerCP-cye5.5 conjugate (BD Pharmingen) as tertiary antibody, and analyzed by flow cytometry. 50,000 cells were analyzed for each analysis. […]",
  "data": [
    {"smiles": "Nc1ncnc2c1ncn2[C@@H]1O[C@H](COP(=O)(O)OP(=O)(O)OP(=O)(O)O)[C@@H](O)[C@H]1O", "note": "[ATP, adenosine 5′-triphosphate]", "values": [
      {"measurement": "number of the fused cells compared with the control group (in words)", "setting": "1 mM or 2 mM ATP added, flow cytometry, 50,000 cells analyzed", "result": "higher than in the control group"},
      {"measurement": "fused cells relative to the control group (times as much)", "setting": "1 or 2 mM ATP added vs control in the absence of ATP", "result": "about 5 times"},
      {"measurement": "ratio (%) of the number of fused cells to the total number of cells", "setting": "1 or 2 mM ATP added, 1 week of co-culture, control without ATP about 0.1%", "result": "about 0.5%"},
      {"measurement": "ratio of the number of fused cells as compared with the control group (in words)", "setting": "1 or 2 mM ATP added, p<0.05 relative to the control group", "result": "increased significantly"}
    ]}
  ]
}
